Activity calls are given as the source filed them. Cut-off read from the data, not from the text of the source, for most assays here: actives have a measured Kd and inactives only a lower limit.
Legend:
[1] = target: T1, Membrane-associated tyrosine- and threonine-specific cdc2-inhibitory kinase (Homo sapiens, UniProt Q99640)
T1 sequence (Q99640 whole entry): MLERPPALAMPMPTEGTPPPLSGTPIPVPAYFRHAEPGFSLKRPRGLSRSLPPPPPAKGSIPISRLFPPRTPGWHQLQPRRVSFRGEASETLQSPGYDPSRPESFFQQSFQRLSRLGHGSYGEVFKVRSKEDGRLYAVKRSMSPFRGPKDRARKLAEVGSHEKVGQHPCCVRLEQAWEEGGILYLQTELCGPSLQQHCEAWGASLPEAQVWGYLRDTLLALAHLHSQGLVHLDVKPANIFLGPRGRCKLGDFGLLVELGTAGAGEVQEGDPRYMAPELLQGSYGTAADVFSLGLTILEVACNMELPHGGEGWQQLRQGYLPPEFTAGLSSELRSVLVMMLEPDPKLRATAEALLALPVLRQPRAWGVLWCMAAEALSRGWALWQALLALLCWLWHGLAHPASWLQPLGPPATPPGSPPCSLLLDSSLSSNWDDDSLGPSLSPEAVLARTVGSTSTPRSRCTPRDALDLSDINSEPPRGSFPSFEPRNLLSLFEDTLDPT

[2] = target: Citron Rho-interacting kinase (Homo sapiens, UniProt O14578)
TGF-beta receptor type-1 = target: T2, TGF-beta receptor type-1 (Homo sapiens, UniProt P36897)
T2 sequence (P36897 whole entry): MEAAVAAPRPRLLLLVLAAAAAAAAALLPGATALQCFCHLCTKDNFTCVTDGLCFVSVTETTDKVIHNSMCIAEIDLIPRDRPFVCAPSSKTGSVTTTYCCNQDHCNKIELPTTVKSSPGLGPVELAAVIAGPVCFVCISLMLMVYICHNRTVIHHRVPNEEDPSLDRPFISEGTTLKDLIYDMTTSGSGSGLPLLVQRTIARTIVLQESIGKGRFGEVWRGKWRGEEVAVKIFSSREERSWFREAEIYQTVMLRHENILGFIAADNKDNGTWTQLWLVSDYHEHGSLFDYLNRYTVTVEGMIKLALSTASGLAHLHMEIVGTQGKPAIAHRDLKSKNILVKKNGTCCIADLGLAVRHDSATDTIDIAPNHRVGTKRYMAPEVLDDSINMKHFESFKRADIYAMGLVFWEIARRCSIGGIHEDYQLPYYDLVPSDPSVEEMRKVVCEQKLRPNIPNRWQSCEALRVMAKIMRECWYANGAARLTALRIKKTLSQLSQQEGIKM

[3] = target: T3, Serine/threonine-protein kinase D3 (Homo sapiens, UniProt O94806)
T3 sequence (O94806 whole entry): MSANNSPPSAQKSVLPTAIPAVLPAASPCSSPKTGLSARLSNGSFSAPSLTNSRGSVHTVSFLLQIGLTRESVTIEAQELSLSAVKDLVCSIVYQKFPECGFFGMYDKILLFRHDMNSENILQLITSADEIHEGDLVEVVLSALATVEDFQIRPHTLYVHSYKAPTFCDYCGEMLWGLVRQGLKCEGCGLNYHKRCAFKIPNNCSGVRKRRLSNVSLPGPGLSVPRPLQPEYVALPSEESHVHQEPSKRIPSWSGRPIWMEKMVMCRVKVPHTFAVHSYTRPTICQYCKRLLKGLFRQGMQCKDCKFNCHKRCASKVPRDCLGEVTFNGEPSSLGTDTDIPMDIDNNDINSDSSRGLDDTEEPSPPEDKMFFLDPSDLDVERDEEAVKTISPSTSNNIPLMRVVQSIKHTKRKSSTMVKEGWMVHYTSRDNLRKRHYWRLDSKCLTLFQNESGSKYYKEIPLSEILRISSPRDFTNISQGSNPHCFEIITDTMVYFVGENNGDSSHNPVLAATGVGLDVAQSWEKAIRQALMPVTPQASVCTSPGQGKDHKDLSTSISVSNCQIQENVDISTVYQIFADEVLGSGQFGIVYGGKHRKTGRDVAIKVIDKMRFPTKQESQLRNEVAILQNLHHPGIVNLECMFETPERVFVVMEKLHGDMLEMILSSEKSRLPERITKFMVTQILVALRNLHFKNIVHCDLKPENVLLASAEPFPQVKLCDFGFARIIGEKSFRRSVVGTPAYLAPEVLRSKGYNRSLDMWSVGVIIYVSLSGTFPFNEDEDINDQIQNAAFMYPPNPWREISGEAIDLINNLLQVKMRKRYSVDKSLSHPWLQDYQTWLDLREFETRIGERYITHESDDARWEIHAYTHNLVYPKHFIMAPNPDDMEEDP

[4] = target: Mitogen-activated protein kinase kinase kinase 20 (Homo sapiens, UniProt Q9NYL2)
[5] = target: Interleukin-1 receptor-associated kinase 1 (Homo sapiens, UniProt P51617)
[6] = target: Serine/threonine-protein kinase PAK 2 (Homo sapiens, UniProt Q13177)
[7] = target: T4, Serine/threonine-protein kinase A-Raf (Homo sapiens, UniProt P10398)
T4 sequence (P10398 whole entry): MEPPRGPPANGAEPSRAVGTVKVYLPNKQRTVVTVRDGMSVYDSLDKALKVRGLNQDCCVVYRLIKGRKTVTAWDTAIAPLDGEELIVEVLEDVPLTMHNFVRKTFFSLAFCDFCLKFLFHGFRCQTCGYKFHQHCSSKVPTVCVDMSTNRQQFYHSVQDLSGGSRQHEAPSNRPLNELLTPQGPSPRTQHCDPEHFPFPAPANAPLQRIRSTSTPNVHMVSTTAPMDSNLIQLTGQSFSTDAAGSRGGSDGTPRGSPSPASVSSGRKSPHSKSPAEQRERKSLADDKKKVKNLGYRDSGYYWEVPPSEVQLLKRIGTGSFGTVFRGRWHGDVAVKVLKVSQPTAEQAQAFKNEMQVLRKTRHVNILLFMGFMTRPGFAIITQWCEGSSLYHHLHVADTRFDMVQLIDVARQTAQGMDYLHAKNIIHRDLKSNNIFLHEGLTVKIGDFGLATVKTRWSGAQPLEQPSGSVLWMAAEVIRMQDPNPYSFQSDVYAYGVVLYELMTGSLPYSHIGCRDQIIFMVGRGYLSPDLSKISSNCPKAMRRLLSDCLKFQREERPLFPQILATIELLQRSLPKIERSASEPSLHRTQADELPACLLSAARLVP
Note: in the data inactive means no Kd found up to 30 µM.

Mitogen-activated protein kinase kinase kinase 20, sequence (Q9NYL2 whole entry): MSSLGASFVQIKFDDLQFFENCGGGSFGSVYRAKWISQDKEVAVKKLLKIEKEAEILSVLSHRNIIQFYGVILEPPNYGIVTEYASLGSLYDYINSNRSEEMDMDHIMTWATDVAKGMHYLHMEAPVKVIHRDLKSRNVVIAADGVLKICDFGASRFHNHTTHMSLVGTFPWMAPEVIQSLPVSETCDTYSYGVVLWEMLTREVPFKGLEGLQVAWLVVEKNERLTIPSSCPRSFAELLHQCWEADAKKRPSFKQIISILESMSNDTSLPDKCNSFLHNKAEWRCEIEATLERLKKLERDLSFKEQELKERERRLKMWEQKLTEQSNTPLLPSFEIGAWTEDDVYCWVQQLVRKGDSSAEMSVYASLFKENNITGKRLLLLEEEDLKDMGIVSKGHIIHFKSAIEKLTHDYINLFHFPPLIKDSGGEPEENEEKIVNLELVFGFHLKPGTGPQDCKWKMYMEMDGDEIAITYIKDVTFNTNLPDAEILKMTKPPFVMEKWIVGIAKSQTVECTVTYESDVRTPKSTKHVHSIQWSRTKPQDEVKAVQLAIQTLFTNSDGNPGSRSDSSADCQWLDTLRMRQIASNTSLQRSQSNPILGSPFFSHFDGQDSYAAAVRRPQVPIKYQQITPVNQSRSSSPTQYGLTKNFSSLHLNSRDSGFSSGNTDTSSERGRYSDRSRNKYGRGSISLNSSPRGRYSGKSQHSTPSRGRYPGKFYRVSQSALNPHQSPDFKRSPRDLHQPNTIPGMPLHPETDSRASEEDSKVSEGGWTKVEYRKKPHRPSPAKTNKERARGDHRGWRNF
Citron Rho-interacting kinase, sequence (O14578 whole entry): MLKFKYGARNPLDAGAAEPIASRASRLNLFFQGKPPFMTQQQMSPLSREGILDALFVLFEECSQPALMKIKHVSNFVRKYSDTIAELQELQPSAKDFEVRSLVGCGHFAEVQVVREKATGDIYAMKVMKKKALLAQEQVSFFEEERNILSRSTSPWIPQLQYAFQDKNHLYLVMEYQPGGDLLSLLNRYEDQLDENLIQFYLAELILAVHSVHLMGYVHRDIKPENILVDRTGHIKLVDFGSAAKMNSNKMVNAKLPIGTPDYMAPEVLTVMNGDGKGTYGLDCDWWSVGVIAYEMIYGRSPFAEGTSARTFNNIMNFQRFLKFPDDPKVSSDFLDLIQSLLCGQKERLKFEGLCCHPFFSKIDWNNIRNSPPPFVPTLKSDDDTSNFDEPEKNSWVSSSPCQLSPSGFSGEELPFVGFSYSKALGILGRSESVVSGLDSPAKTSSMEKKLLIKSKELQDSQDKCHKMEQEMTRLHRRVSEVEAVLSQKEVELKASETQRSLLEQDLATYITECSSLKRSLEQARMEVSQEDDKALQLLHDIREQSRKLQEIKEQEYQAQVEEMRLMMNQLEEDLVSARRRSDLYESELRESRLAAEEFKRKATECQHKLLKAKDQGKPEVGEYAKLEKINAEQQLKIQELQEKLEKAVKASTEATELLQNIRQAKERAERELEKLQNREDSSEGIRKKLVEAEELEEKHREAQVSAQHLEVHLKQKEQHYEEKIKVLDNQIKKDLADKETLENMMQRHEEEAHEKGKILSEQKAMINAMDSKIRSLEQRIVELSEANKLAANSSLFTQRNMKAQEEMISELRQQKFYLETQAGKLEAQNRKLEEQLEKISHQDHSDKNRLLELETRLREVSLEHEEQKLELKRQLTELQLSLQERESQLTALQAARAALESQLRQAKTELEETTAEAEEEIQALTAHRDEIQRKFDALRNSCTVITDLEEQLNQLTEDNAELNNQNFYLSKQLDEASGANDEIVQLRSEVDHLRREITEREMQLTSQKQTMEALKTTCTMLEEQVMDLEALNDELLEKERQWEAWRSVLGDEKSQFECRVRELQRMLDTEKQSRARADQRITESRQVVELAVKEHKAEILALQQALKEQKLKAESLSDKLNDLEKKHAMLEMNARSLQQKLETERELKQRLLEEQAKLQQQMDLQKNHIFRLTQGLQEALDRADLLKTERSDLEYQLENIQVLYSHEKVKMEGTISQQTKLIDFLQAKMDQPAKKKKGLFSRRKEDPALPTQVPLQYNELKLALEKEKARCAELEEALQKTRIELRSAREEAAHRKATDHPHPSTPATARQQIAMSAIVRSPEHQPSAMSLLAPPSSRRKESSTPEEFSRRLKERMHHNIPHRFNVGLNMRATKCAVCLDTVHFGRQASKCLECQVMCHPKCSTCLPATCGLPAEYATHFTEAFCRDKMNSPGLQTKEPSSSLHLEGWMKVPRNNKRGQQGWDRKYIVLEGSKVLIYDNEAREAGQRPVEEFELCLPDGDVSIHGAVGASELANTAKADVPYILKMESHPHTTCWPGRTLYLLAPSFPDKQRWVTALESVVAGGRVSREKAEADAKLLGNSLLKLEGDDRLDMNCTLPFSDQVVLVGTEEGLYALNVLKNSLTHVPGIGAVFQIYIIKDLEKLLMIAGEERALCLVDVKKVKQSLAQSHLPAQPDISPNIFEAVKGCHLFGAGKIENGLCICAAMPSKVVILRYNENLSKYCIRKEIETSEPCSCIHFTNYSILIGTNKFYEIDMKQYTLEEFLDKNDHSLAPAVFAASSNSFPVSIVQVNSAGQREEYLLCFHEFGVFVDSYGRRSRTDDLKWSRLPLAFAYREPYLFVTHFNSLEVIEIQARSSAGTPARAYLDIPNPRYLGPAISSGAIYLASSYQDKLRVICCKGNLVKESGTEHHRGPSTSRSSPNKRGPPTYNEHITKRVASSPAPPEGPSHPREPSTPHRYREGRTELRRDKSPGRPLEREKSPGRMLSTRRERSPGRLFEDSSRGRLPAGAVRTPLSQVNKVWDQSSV
Interleukin-1 receptor-associated kinase 1, sequence (P51617 whole entry): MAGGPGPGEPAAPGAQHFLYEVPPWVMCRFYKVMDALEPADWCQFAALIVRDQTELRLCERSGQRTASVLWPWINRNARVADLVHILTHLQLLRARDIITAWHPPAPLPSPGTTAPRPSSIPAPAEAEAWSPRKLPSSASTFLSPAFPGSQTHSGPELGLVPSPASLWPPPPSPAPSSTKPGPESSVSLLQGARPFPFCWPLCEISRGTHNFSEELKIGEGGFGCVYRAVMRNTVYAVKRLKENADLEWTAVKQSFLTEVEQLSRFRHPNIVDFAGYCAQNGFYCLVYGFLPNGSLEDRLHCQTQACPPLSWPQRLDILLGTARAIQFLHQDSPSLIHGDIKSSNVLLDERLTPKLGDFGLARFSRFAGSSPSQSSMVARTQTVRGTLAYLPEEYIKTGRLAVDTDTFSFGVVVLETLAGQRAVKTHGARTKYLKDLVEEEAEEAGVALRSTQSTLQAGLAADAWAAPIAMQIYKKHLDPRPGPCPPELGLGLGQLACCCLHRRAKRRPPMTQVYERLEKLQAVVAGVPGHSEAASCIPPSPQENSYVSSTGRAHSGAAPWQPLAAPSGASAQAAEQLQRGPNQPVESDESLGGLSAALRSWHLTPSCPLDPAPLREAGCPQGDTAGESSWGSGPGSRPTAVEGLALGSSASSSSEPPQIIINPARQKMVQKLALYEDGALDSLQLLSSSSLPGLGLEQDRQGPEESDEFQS
Serine/threonine-protein kinase PAK 2, sequence (Q13177 whole entry): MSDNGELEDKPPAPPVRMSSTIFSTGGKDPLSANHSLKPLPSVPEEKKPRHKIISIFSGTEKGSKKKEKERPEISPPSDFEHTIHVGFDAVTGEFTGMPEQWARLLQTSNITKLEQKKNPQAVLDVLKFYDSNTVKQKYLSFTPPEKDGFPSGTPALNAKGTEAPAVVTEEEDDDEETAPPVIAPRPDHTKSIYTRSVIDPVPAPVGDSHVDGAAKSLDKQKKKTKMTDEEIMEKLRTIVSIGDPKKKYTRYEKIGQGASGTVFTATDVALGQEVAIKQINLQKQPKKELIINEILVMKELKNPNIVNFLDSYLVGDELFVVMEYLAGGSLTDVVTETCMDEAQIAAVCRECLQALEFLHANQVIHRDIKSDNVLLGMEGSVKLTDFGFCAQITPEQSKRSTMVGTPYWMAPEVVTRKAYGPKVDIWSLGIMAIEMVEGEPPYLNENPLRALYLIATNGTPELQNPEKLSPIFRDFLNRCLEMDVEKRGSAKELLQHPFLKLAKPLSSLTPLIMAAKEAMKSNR

| Compound | Kd [1] | Kd [2] | Kd (TGF-beta receptor type-1) | Kd [3] | Kd [4] | Kd [5] | Kd [6] | Kd [7] |
| --- | --- | --- | --- | --- | --- | --- | --- | --- |
| Cn1cc(-c2[nH]c3cc(NC(=O)[C@H](N)C4CCCCC4)cc4c3c2C=NNC4=O)cn1 | > 30 µM (inactive) | 0.725 µM (active) | > 30 µM (inactive) | > 30 µM (inactive) | > 30 µM (inactive) | > 30 µM (inactive) | > 30 µM (inactive) | > 30 µM (inactive) |
| COc1cc2ncnc(Nc3ccc(O)cc3)c2cc1OC [WHI-P131] | > 30 µM (inactive) | > 30 µM (inactive) | > 30 µM (inactive) | > 30 µM (inactive) | > 30 µM (inactive) | > 30 µM (inactive) | > 30 µM (inactive) | > 30 µM (inactive) |
| NC[C@@](O)(c1ccc(Cl)cc1)c1ccc(-c2cn[nH]c2)cc1 [AT-13148] | > 30 µM (inactive) | > 30 µM (inactive) | > 30 µM (inactive) | > 30 µM (inactive) | > 30 µM (inactive) | > 30 µM (inactive) | > 30 µM (inactive) |  |
| CNC(=O)c1cc(COc2nnc(Nc3ccc(Cl)cc3)c3ccoc23)ccn1 [TELATINIB] | > 30 µM (inactive) | > 30 µM (inactive) | > 30 µM (inactive) | > 30 µM (inactive) | 0.477 µM | > 30 µM (inactive) | > 30 µM (inactive) | > 30 µM (inactive) |
| COc1cc(F)c(F)c(Nc2ccc(I)cc2F)c1NS(=O)(=O)C1(C[C@H](O)CO)CC1 [REFAMETINIB] | > 30 µM (inactive) | > 30 µM (inactive) | > 30 µM (inactive) | > 30 µM (inactive) | > 30 µM (inactive) | > 30 µM (inactive) | > 30 µM (inactive) | > 30 µM (inactive) |
| CN1CCN(c2nc(C3=C(c4c[nH]c5ccccc45)C(=O)NC3=O)c3ccccc3n2)CC1 [SOTRASTAURIN] | > 30 µM (inactive) | > 30 µM (inactive) | > 30 µM (inactive) | > 30 µM (inactive) | > 30 µM (inactive) | > 30 µM (inactive) | > 30 µM (inactive) | > 30 µM (inactive) |
| CC1(COc2ccc3c(c2)ncn3-c2ccc3cccc(N4CCC(N)CC4)c3n2)COC1 [CRENOLANIB] | > 30 µM (inactive) | > 30 µM (inactive) | > 30 µM (inactive) | 14.8 µM (active) | > 30 µM (inactive) |  | > 30 µM (inactive) | > 30 µM (inactive) |
| O[C@H]1CC[C@H](Nc2ncc3nc(Nc4c(F)cc(F)cc4F)n([C@H]4CCOC4)c3n2)CC1 [TANZISERTIB] | > 30 µM (inactive) | > 30 µM (inactive) | > 30 µM (inactive) | > 30 µM (inactive) | > 30 µM (inactive) | > 30 µM (inactive) | > 30 µM (inactive) | > 30 µM (inactive) |
| CNC(=O)c1ccc(Nc2ncc(C(F)(F)F)c(NCc3nccnc3N(C)S(C)(=O)=O)n2)cc1 [DEFACTINIB] | > 30 µM (inactive) | > 30 µM (inactive) | > 30 µM (inactive) | > 30 µM (inactive) | > 30 µM (inactive) | > 30 µM (inactive) | > 30 µM (inactive) | > 30 µM (inactive) |
| Cc1cc(-c2cc(OC(=O)c3ccccc3)ccc2Cl)cc2nnc(Nc3ccc(OCCN4CCCC4)cc3)nc12 [TG100-801] | > 30 µM (inactive) | > 30 µM (inactive) | > 30 µM (inactive) | > 30 µM (inactive) | > 30 µM (inactive) | > 30 µM (inactive) | > 30 µM (inactive) | > 30 µM (inactive) |
| CCN1CCN(Cc2ccc(Nc3ncc(F)c(-c4cc(F)c5nc(C)n(C(C)C)c5c4)n3)nc2)CC1 [ABEMACICLIB] | > 30 µM (inactive) | 0.798 µM (active) | > 30 µM (inactive) | 1.84 µM (active) | > 30 µM (inactive) | 0.126 µM (active) | > 30 µM (inactive) | > 30 µM (inactive) |
| O=c1[nH]c([C@@H]2CCCN2)nc2c1oc1ccc(Cl)cc12 | > 30 µM (inactive) | 3.66 µM (active) | > 30 µM (inactive) | > 30 µM (inactive) | > 30 µM (inactive) | > 30 µM (inactive) | > 30 µM (inactive) | > 30 µM (inactive) |
| O=S(=O)(c1cccc2c(O)nccc12)N1CCCNCC1 [HYDROXYFASUDIL] | > 30 µM (inactive) | > 30 µM (inactive) |  | > 30 µM (inactive) | > 30 µM (inactive) | > 30 µM (inactive) | > 30 µM (inactive) | > 30 µM (inactive) |

Results, then the compound that gave them:

| Kd [1] | Kd [2] | Kd (TGF-beta receptor type-1) | Kd [3] | Kd [4] | Kd [5] | Kd [6] | Kd [7] | Compound |
| --- | --- | --- | --- | --- | --- | --- | --- | --- |
| > 30 µM (inactive) | > 30 µM (inactive) | > 30 µM (inactive) | > 30 µM (inactive) | > 30 µM (inactive) | > 30 µM (inactive) | > 30 µM (inactive) | > 30 µM (inactive) | Cc1cc(Nc2nc(N[C@@H](C)c3ncc(F)cn3)ncc2Cl)n[nH]1 [AZD-1480] |
| 1.85 µM (active) |  | 1.23 µM (active) | 0.493 µM (active) | 0.282 µM (active) | > 30 µM (inactive) | > 30 µM (inactive) | > 30 µM (inactive) | COc1cccc(Nc2ncnn3ccc(CN4CC[C@@H](N)[C@H](O)C4)c23)c1 [BMS-690514] |
| > 30 µM (inactive) | > 30 µM (inactive) | > 30 µM (inactive) | > 30 µM (inactive) | > 30 µM (inactive) | > 30 µM (inactive) | > 30 µM (inactive) | > 30 µM (inactive) | Cc1cc(C(=O)Nc2cc(Oc3ccc4nc(NC(=O)C5CC5)cn4n3)ccc2C)n(C)n1 [TAK-593] |
| > 30 µM (inactive) | > 30 µM (inactive) | > 30 µM (inactive) | > 30 µM (inactive) | > 30 µM (inactive) | > 30 µM (inactive) | > 30 µM (inactive) | > 30 µM (inactive) | Cn1c(=O)c(F)c(Nc2ccc(I)cc2F)c2c(=O)n(C[C@@H](O)CO)cnc21 [TAK-733] |
